These results are taken from patent publication US20040235795A1, “Utilization of phosphatidylserine in the treatment of attention deficit syndrome (adhs)” (priority 2001, published 2004).

Entries after “also recorded” stand apart in the source; their conditions may differ.

The subject of data set [1] is ADHS patients. To be noted: cited from earlier work.
In data set [2] the test system is attention deficit syndrome (ADHS) probands. Put plainly: Open study of phosphatidylserine supplementation in ADHS probands (examples 1 to 4). Format: in vivo, human. As to the method: Probands in an open study (examples 1 to 4) were selected with the aid of the Wender Utah Rating Scale (WURS) on the basis of their performance at school as well as clinical and physiological tests. They were assessed after 4, 6 and 8 weeks with the short-term supplementation and after 2, 4 and 6 months with the longer supplementation. The probands were examined for measurable differences with regard to concentration, attention, impulsivity, aggression potential and hyperactivity. Questionnaires were used to involve probands, parents and teachers in the evaluation.

Setting [3] is: high dosages 200 to 500 mg daily over 4 months.
[4] abbreviates: Example 3: 100 mg per day, 6 months, child, after the third month.

For phosphatidylserine, the “improvement of the ADHS symptoms” value in data set [1] (100 mg per day over a period of 2 months) is recorded as “did not result in a clear improvement”. Moreover, the “side effects with drugs administered at the same time” value in data set [1] (100 to 500 mg daily) is “no side effects occurred”. Also, in data set [1] (200 to 300 mg daily (severe symptoms up to 500 mg daily) over 4 months, probands aged 3 to 19 years), the “probands with positive effect” value is 25 of 27. In data set [1] (setting [3]), the “improvement in single proband one” value is recorded as “not possible to make a clear statement about an improvement” and the “improvement in single proband two” value is reported as “only a slight improvement”. For the same substance, in data set [2] (ADHS patients / probands with ADHS), the habituation effects entry was “no habituation effects occurred”. Further, the “general well-being (reported by proband)” value in data set [2] (Example 2: 200 mg three times daily, 7 weeks, child) is “improvement”. In data set [2] (Example 2: 200 mg three times daily, 7 weeks, child, end of supplementation), the hyperactivity result is “marked decline”. The “attentiveness, concentration and memory performance as well as achievement at school” value in data set [2] (Example 3: 100 mg per day, 6 months, child) is recorded as “improved considerably”. Moreover, in data set [2] (setting [4]), the general well-being entry was “improvement” and the mood result is “uplift”. Besides, in data set [2] (even in high doses and over a longer supplementation period), the tolerance result is “no limitation whatsoever on its wellknown good tolerance; also recorded: well tolerated”.
